Data from ChEMBL document CHEMBL1131682, “New photoaffinity analogs of paclitaxel” (1999).

How the values were obtained:
Type in all cases: functional
HT-29 = experiment: Inhibition of growth of human colon tumor cell line (HT-29) after 72 hr of drug exposure
A549 = experiment: Inhibition of growth of human NSCL non small cell lung carcinoma cell line ([…]) after 72 hr of drug exposure
A121 = experiment: Inhibition of growth of human ovarian tumor cell line (A121) after 72 hr of drug exposure
MCF7R = experiment: Inhibition the growth of doxorubicin resistant human breast tumor cell line (MCF-7-R) after 72 hr of drug exposure
MCF7 = experiment: Inhibition of the growth of human breast tumor cell line (MCF-7) after 72 hr of drug exposure

Row | IC50 (MCF7R) [nM] | SMILES | Inhibition (HT-29) [%] | Inhibition (A549) [%] | Inhibition (A121) [%] | Inhibition (MCF7) [%]
1 | 1540 | CC(=O)O[C@@]12CO[C@@H]1C[C@H](O)[C@@]1(C)C(=O)[C@H](OC(=O)CCc3cccc(C(=O)c4ccccc4)c3)C3=C(C)C(OC(=O)[C@H](O)[C@@H](NC(=O)c4ccccc4)c4ccccc4)C[C@@](O)([C@@H](OC(=O)c4ccccc4)C12)C3(C)C (stereo not given in full) | 40.8 | 40.8 | 32.8 | 20.7
2 | 450 | CC(=O)O[C@H]1C(=O)[C@@]2(C)C([C@H](OC(=O)c3ccccc3)[C@]3(O)CC(OC(=O)[C@H](O)[C@@H](NC(=O)c4ccccc4)c4ccccc4)C(C)=C1C3(C)C)[C@]1(OC(C)=O)CO[C@@H]1C[C@@H]2OC(=O)CCc1cccc(C(=O)c2ccccc2)c1 (stereo not given in full) | 6.5 | 13 | 8.8 | 2.4
3 | 300 | CC(=O)O[C@H]1C(=O)[C@@]2(C)[C@H]([C@H](OC(=O)c3ccccc3)[C@]3(O)C[C@H](OC(=O)[C@H](O)[C@@H](NC(=O)c4ccccc4)c4ccccc4)C(C)=C1C3(C)C)[C@]1(OC(C)=O)CO[C@@H]1C[C@@H]2O [PACLITAXEL] | 3.2 | 3.6 | 6.1 | 1.7
